Results: PubChem BioAssay (NCI)
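Results reflect a 48-hour exposure of cells in 96-well plates to compound at five concentrations. At the GI50, growth is halved. TGI denotes the concentration required for complete inhibition of growth.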

Columns and labels:
Assay in all cases: NCI-60 cell line screen, 48 h
[1] = test system: HCC-2998 colon
[2] = test system: IGROV1 ovarian
[3] = test system: LOX IMVI melanoma
[4] = test system: NCI-H460 lung
[5] = test system: OVCAR-8 ovarian
[6] = test system: SF-268 CNS
[7] = test system: SK-OV-3 ovarian
[8] = test system: U251 CNS
[9] = test system: BT-549 breast
[10] = test system: T-47D breast

SMILES | TGI [1] | TGI [2] | TGI [3] | TGI [4] | TGI [5] | TGI [6] | TGI [7] | TGI [8] | GI50 [9] | TGI [9] | GI50 [2] | GI50 [3] | GI50 [4] | GI50 [5] | GI50 [6] | GI50 [7] | GI50 [10] | TGI [10] | GI50 [8] | GI50 [1]
C/C(CC(=O)Nc1ccc([N+](=O)[O-])cc1)=N\Nc1ccc([N+](=O)[O-])cc1[N+](=O)[O-] | 65.4 µM | > 100 µM | > 100 µM | > 100 µM | > 100 µM | > 100 µM | > 100 µM | > 100 µM | – | – | – | – | – | – | – | – | – | – | – | –
NCCCCCCCCCn1c2c(c3ccccc3c1=O)C(=O)c1ccccc1-2 | – | > 50 µM | 23.6 µM | 14.2 µM | > 50 µM | 31.5 µM | 18.7 µM | 19.1 µM | 9.26 µM | 18.9 µM | 10.2 µM | 7.38 µM | 2.8 µM | 12.5 µM | 11.8 µM | 10.1 µM | 9.33 µM | 22 µM | 9.52 µM | –
C[C@H]1CCC2C(CN3CCCCC3)C(=O)OC2[C@]2(C)C(=O)CC(N3CCCCC3)C12O (stereo partly specified) | 18.2 µM | 84.1 µM | – | 32.6 µM | – | 44.8 µM | 79.9 µM | 24.5 µM | – | – | – | – | – | – | – | – | – | – | – | –
c1cnc2nc3n(c2c1)CSC3 | > 100 µM | > 100 µM | > 100 µM | > 100 µM | > 100 µM | > 100 µM | > 100 µM | > 100 µM | – | – | – | – | – | – | – | – | – | – | – | –
Cn1c2c(c3ccccc31)CCN(CCCN1CCN(c3ccccc3)CC1)C2=O | – | 38 µM | 60 µM | – | 59.6 µM | > 100 µM | 37 µM | 30.2 µM | – | – | – | – | – | – | – | – | – | – | – | –
O=C(O)CCCc1cc2c(s1)-c1cccc3cccc-2c13 | 50.2 µM | > 100 µM | 52 µM | > 100 µM | > 100 µM | > 100 µM | 75.4 µM | 53.8 µM | – | – | – | – | – | – | – | – | – | – | – | –
Cc1cc(N(CCC#N)CCC#N)ccc1CC1N=C(c2ccccc2)OC1=O (stereo unspecified) | > 100 µM | > 100 µM | > 100 µM | > 100 µM | > 100 µM | > 100 µM | > 100 µM | > 100 µM | – | – | – | – | – | – | – | – | – | – | – | –
Clc1ccc(Nc2ncnc3c2sc2ncccc23)c(Cl)c1 | – | > 100 µM | > 100 µM | > 100 µM | > 100 µM | > 100 µM | > 100 µM | > 100 µM | 0.0243 µM | > 100 µM | > 100 µM | 0.0214 µM | < 0.01 µM | < 0.0135 µM | 0.0246 µM | 0.137 µM | – | – | 0.0152 µM | –
O=c1[nH]c(-c2ccc([N+](=O)[O-])cc2)nc2ccc(Cl)cc12 | > 100 µM | > 100 µM | – | – | > 100 µM | > 100 µM | > 100 µM | > 100 µM | – | – | – | – | – | – | – | – | – | – | – | –
C/C(CC(=O)Nc1cccc(C)c1C)=N\NC(N)=S | > 100 µM | > 100 µM | > 100 µM | > 100 µM | > 100 µM | > 100 µM | > 100 µM | > 100 µM | – | – | – | – | – | – | – | – | – | – | – | –
COC(=O)C1=Cc2cn(S(=O)(=O)c3ccc(C)cc3)c3cccc(c23)C(C=C(C)C)N1C(C)=O (stereo unspecified) | > 100 µM | > 100 µM | > 100 µM | – | > 100 µM | > 100 µM | > 100 µM | > 100 µM | – | – | – | – | – | – | – | – | – | – | – | –
O=[N+]([O-])c1cccc([I+]c2ccccc2)c1 | – | 27 µM | 20.1 µM | 25.3 µM | 17.6 µM | 21.2 µM | 27.5 µM | 20.3 µM | 10.5 µM | 23.1 µM | 5.29 µM | 6.21 µM | 3.56 µM | 4.37 µM | 7.3 µM | 13.8 µM | 8.28 µM | 33.4 µM | 6.39 µM | –
O=c1sc(-c2nc3ccccc3[nH]2)c(/N=C/c2ccccc2)n1-c1ccccc1 | > 100 µM | > 100 µM | > 100 µM | – | > 100 µM | > 100 µM | 89.1 µM | > 100 µM | – | – | – | – | – | – | – | – | – | – | – | –
CC(C)(N)C(=O)N[C@@H]1C(=O)N2[C@@H]1SC(C)(C)[C@@H]2C(=O)O | – | > 100 µM | > 100 µM | > 100 µM | > 100 µM | > 100 µM | > 100 µM | > 100 µM | – | > 100 µM | – | – | – | – | – | – | – | > 100 µM | – | –
c1ccc(N2N=NC3C4CC(C5c6ccccc6C45)C32)cc1 (stereo unspecified) | – | > 100 µM | 39.6 µM | > 100 µM | > 100 µM | > 100 µM | > 100 µM | > 100 µM | – | – | – | – | – | – | – | – | – | – | – | –
Cc1cc(C)c(C2=NO[C@@H]3C(=O)N(c4ccc(Cc5ccc(N6C(=O)[C@H]7C(c8c(C)cc(C)cc8C)=NO[C@H]7C6=O)cc5)cc4)C(=O)[C@H]23)c(C)c1 | > 100 µM | > 100 µM | > 100 µM | – | > 100 µM | > 100 µM | > 100 µM | – | – | – | – | – | – | – | – | – | – | – | – | –
C=C(C)[C@@H]1CC[C@]2(C(=O)N3CCN(C)CC3)CC[C@]3(C)[C@H](CC[C@@H]4[C@@]5(C)CC[C@H](O)C(C)(C)[C@@H]5CC[C@]43C)[C@@H]12 | 3.59 µM | 3.71 µM | 3.74 µM | 4.04 µM | 4.56 µM | 4.42 µM | 3.35 µM | – | 1.74 µM | 3.49 µM | 1.93 µM | 1.87 µM | 2.02 µM | 1.69 µM | 2.02 µM | 1.84 µM | 1.48 µM | 3.75 µM | – | 1.91 µM
O=C(O)c1ccccc1C1c2ccc(Cl)cc2Oc2cc(Cl)ccc21 | > 100 µM | > 100 µM | > 100 µM | > 100 µM | > 100 µM | > 100 µM | > 100 µM | > 100 µM | – | – | – | – | – | – | – | – | – | – | – | –
CN(CC1NCCCC1O)C12CC3CC(CC(C3)C1)C2 (stereo unspecified) | > 100 µM | > 100 µM | > 100 µM | > 100 µM | > 100 µM | > 100 µM | > 100 µM | > 100 µM | – | – | – | – | – | – | – | – | – | – | – | –
COc1cc(=O)oc(/C=C/CO)c1C | > 100 µM | > 100 µM | > 100 µM | – | > 100 µM | > 100 µM | > 100 µM | > 100 µM | – | – | – | – | – | – | – | – | – | – | – | –
CCOC(=O)Cn1c(=O)[nH]c(=O)c2[nH]cnc21 | > 100 µM | > 100 µM | > 100 µM | > 100 µM | > 100 µM | > 100 µM | > 100 µM | > 100 µM | – | – | – | – | – | – | – | – | – | – | – | –
O=C(NCCCl)NCc1ccccc1 | > 100 µM | > 100 µM | > 100 µM | > 100 µM | > 100 µM | > 100 µM | > 100 µM | > 100 µM | – | – | – | – | – | – | – | – | – | > 100 µM | – | –
C=CCn1c(=O)c(C(=O)NC(=O)OCC)cn(C2CCCCC2)c1=O | > 100 µM | > 100 µM | > 100 µM | > 100 µM | > 100 µM | – | > 100 µM | > 100 µM | – | – | – | – | – | – | – | – | – | – | – | –
